Results taken from patent publication US11000505B2 (priority 2010, dated 2021).
pKi: −log10 of the molar value. Values joined by “and” are separate entries in the source; they are usually repeats but may differ in a detail not shown here. Identical values can stand only once.

Legend:
pial artery [1] = conditions: pig, in vivo
[2] = system: mu, kappa and delta receptors; conditions: competition binding assays; cited from earlier work
cAMP = cAMP in CSF by ELISA (Example 7); type: in vivo, newborn pigs
From the text: Newborn pigs (aged up to 6 days, 1.1-2.0 kg) of both genders were used for this study. Protocols were approved by the Institutional Animal Care and Use Committee of the University of Pennsylvania (Philadelphia). The newborn piglet model was used because its brain is gyrencepahalic and contains more white matter than grey matter, which is similar to that of humans. Furthermore, the head is large enough for the insertion of a cranial window and vascular visualization. Animals were induced with isoflurane (1-2 minimum alveolar concentration) and maintained with α-chloralose (80-100 mg/kg supplemented with 5 mg/kg·h, IV). Both femoral arteries were catheterized to monitor blood pressure and blood gas to maintain a constant carbon dioxide and pH. A catheter was inserted into the right femoral vein for medication administration. Animals were ventilated with room air after tracheal intubation. A heating pad was used to maintain the rectal temperature of animals at 37-39° C. A closed cranial window on the top of the head of the piglet was placed for direct pial artery visualization and diameter measurement. The closed cranial window consisted of three parts: a stainless steel ring, a circular glass cover slip, and three ports consisting of 17-gauge hypodermic needles attached to three precut holes in the stainless steel ring. CSF was collected through a cranial window port for cAMP measurement in some animals. […] Vascular diameter was measured from a video monitor that was connected to the camera with a video microscaler (VPA 550; For-A-Corp., Los Angeles, Calif.) by the investigator who administered the medication.
The cerebral cortical periarachnoid CSF samples were collected before and 10 min afterward administration of herkinorin and NTP to measure the cAMP level. […] Commercially available ELISA kits (Assay Designs, Ann Arbor, Mich.) were used to quantify cAMP concentrations.

cloned human mu receptor = biological target: T1, cloned human mu receptor (Homo sapiens, UniProt P35372); assay: In-vitro affinity determination, [3H]DAMGO competition; type: binding
T1 construct: expressed in transfected cells; host or cells: HEK cells (NIMH PDSP)

[3] = biological target: T2, cloned rat kappa receptor (Rattus norvegicus, UniProt P34975); assay: biochemical; type: binding
T2 construct: expressed in transfected cells; host or cells: HEK cells (NIMH PDSP)

pial artery [4] = conditions: pig, in vivo; remark: listed apart in the source
pial artery [5] = type: in vivo, piglets; conditions: in vivo
pial artery [6] = type: in vivo, newborn pigs; conditions: pig, in vivo

T1 sequence (P35372 whole entry): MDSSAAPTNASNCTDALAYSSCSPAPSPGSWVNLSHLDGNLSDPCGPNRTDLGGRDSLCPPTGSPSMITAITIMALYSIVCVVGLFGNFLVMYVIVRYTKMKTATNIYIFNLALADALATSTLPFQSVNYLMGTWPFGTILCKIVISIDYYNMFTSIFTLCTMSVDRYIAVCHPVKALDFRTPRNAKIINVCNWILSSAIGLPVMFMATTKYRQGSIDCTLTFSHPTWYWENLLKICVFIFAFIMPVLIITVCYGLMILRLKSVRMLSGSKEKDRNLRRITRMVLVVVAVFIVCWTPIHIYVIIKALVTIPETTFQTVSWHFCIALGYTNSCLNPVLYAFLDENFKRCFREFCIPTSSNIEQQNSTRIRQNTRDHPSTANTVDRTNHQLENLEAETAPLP
T2 sequence (P34975 whole entry): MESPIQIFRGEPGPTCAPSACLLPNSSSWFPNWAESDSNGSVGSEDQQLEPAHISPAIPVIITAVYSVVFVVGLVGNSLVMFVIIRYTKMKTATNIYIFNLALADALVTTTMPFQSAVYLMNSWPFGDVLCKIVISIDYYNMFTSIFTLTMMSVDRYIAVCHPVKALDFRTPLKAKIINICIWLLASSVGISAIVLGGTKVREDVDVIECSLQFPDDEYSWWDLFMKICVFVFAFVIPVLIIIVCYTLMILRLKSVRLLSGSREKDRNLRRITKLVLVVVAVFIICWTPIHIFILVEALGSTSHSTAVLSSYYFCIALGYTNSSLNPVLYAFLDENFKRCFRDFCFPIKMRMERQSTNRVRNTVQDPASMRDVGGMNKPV

Molecule: O=c1[nH]c2cc(C(F)(F)F)ccc2n1-c1cc(C(F)(F)F)ccc1O [NS1619, reference compound]
- dilation response in presence of iberiotoxin (pial artery [1]): blocked the dilation effects of NS1619

Molecule: CC1(C)Oc2ccc(C#N)cc2C(N2CCCC2=O)C1O (stereo not drawn) [cromakalim, reference compound]
- dilation response in presence of glibenclamide (pial artery [1]): blocked the dilation in response to cromakalim

Molecule: COC(=O)[C@@H]1C[C@H](OC(=O)c2ccccc2)C(=O)[C@H]2[C@@]1(C)CC[C@H]1C(=O)O[C@H](c3ccoc3)C[C@]21C [herkinorin]
- selectivity for mu over delta receptors [2]: approximately 98 fold
- selectivity for mu over kappa receptors [2]: approximately 8 fold
- cAMP levels in the CSF (cAMP; 10 min after administration): significantly increased cAMP levels in the CSF
- elevated cAMP levels with NTP (cAMP; pig, in vivo): blocked by NTP
- elevated cAMP levels with β-FNA (cAMP; pig, in vivo): not affected after β-FNA administration
- pKi (cloned human mu receptor; HEK cells over-expressing receptor): 7.35
- binding affinity to mu receptor relative to kappa receptor (cloned human mu receptor; mu stronger than kappa): approximately 4 fold
- pKi [3]: 6.74
- concentration required to effectively dilate pial arteries (pial artery [4]): 0.1 nM
- dilation in presence of NTP (pial artery [4]): totally abolished by norbinaltorphimine
- dilation in presence of Rp-cAMPS (pial artery [4]): blunted herkinorin-mediated pial artery dilation
- dilation in presence of β-FNA (pial artery [4]): not affected by β-FNA
- pial artery diameter dilation (pial artery [4]): 10.6% and 17.8%
- systemic blood pressure (pial artery [4]): without significant systemic blood pressure variation

Molecule: CC(C)NCC(O)c1ccc(O)c(O)c1 (stereo not drawn) [isoproterenol, reference compound]
- pial artery response to the agent before and after hypoxia/ischemia (pial artery [5]): unchanged in all groups
- pial artery response to the agent before and after HI (pial artery [6]): no change was observed
- dilation in presence of NTP (pial artery [4]): unchanged by either NTP or β-FNA
- dilation in presence of β-FNA (pial artery [4]): unchanged by either NTP or β-FNA
- dilation response in presence of naloxone (pial artery [1]): unaffected
- dilation response in presence of norbinaltorphimine (pial artery [1]): unaffected

Molecule: methionine enkephalin [reference compound]
- dilation response in presence of naloxone (pial artery [1]): blocked the dilation effects
- dilation response in presence of norbinaltorphimine (pial artery [1]): blocked the dilation effects
